Reference: PubChem BioAssay (NCI)
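Test compounds were applied to cells in 96-well plates for 48 hours at 5 doses. TGI marks complete inhibition of growth.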

Legend:
Assay in all cases: NCI anticancer screen, dose series, 48 h
[1] = test system: NCI-H522 lung
[2] = test system: HS 578T breast
[3] = test system: OVCAR-8 ovarian
[4] = test system: RXF 393 renal
[5] = test system: A498 renal
[6] = test system: UACC-257 melanoma
[7] = test system: OVCAR-4 ovarian
[8] = test system: SN12C renal
[9] = test system: MCF7 breast
[10] = test system: MDA-MB-435
[11] = test system: SK-OV-3 ovarian
[12] = test system: HT29 colon
[13] = test system: OVCAR-5 ovarian
[14] = test system: SK-MEL-2 melanoma
[15] = test system: NCI-H226 lung
[16] = test system: HL-60(TB) leukemia
[17] = test system: A549 NSCLC
[18] = test system: SF-268 CNS
[19] = test system: UACC-62 melanoma
[20] = test system: MALME-3M melanoma
[21] = test system: HOP-92 NSCLC
[22] = test system: DU-145 prostate
[23] = test system: SK-MEL-28 melanoma
[24] = test system: TK-10 renal
[25] = test system: HOP-62 NSCLC
[26] = test system: K-562 leukemia
[27] = test system: COLO 205 colon
[28] = test system: NCI-H23 lung
[29] = test system: CCRF-CEM leukemia
[30] = test system: KM12 colon
[31] = test system: OVCAR-3 ovarian
[32] = test system: SF-539 CNS
[33] = test system: 786-0 renal
[34] = test system: U251 CNS
[35] = test system: MOLT-4 leukemia
[36] = test system: SNB-19 CNS
[37] = test system: LOX IMVI melanoma
[38] = test system: SF-295 CNS
[39] = test system: SNB-75 CNS
[40] = test system: T-47D breast
[41] = test system: HCC-2998 colon
[42] = test system: SR leukemia
[43] = test system: MDA-N
[44] = test system: ACHN renal
[45] = test system: NCI-H460 lung
[46] = test system: HCT-116 colon
[47] = test system: IGROV1 ovarian
[48] = test system: UO-31 renal
[49] = test system: PC-3 prostate
[50] = test system: SW-620 colon
[51] = test system: M14 melanoma
[52] = test system: MDA-MB-231 breast
[53] = test system: RPMI-8226 leukemia
[54] = test system: CAKI-1 renal
[55] = test system: HCT-15 colon
[56] = test system: SK-MEL-5 melanoma
[57] = test system: EKVX NSCLC
[58] = test system: NCI/ADR-RES ovarian
[59] = test system: BT-549 breast

Compound: O=[N+]([O-])C(=C1Nc2ccccc2N1)C(Cl)=C(Cl)Cl
- TGI [1]: > 100 µM
- TGI [2]: > 100 µM
- TGI [3]: > 100 µM
- TGI [4]: > 100 µM
- TGI [5]: > 100 µM
- TGI [6]: > 100 µM
- TGI [7]: > 100 µM
- TGI [8]: > 100 µM
- TGI [9]: > 100 µM
- TGI [10]: > 100 µM
- TGI [11]: > 100 µM
- TGI [12]: > 100 µM
- TGI [13]: > 100 µM
- TGI [14]: > 100 µM
- TGI [15]: > 100 µM
- TGI [16]: > 100 µM
- TGI [17]: > 100 µM
- TGI [18]: > 100 µM
- TGI [19]: > 100 µM
- TGI [20]: > 100 µM
- TGI [21]: > 100 µM
- TGI [22]: > 100 µM
- TGI [23]: > 100 µM
- TGI [24]: > 100 µM
- TGI [25]: > 100 µM
- TGI [26]: > 100 µM
- TGI [27]: > 100 µM
- TGI [28]: > 100 µM
- TGI [29]: 76 µM
- TGI [30]: > 100 µM
- TGI [31]: 53.1 µM
- TGI [32]: > 100 µM
- TGI [33]: > 100 µM
- TGI [34]: > 100 µM
- TGI [35]: 56.3 µM
- TGI [36]: > 100 µM
- TGI [37]: > 100 µM
- TGI [38]: > 100 µM
- TGI [39]: 12.4 µM
- TGI [40]: 77.7 µM
- TGI [41]: > 100 µM
- TGI [42]: > 100 µM
- TGI [43]: > 100 µM
- TGI [44]: > 100 µM
- TGI [45]: > 100 µM
- TGI [46]: > 100 µM
- TGI [47]: > 100 µM
- TGI [48]: > 100 µM
- TGI [49]: > 100 µM
- TGI [50]: > 100 µM
- TGI [51]: > 100 µM
- TGI [52]: 90.3 µM
- TGI [53]: > 100 µM
- TGI [54]: > 100 µM
- TGI [55]: > 100 µM
- TGI [56]: > 100 µM
- TGI [57]: > 100 µM

Compound: CCOC(=O)Cn1nc2ccc(Nc3nc4ccccc4nc3C(=O)OCC)cc2n1
- TGI [1]: > 100 µM
- TGI [2]: > 100 µM
- TGI [58]: > 100 µM
- TGI [3]: > 100 µM
- TGI [4]: 58.2 µM
- TGI [5]: > 100 µM
- TGI [6]: > 100 µM
- TGI [7]: > 100 µM
- TGI [8]: > 100 µM
- TGI [9]: > 100 µM
- TGI [10]: > 100 µM
- TGI [11]: > 100 µM
- TGI [12]: > 100 µM
- TGI [13]: > 100 µM
- TGI [14]: > 100 µM
- TGI [15]: > 100 µM
- TGI [16]: > 100 µM
- TGI [17]: > 100 µM
- TGI [18]: > 100 µM
- TGI [19]: > 100 µM
- TGI [20]: > 100 µM
- TGI [21]: > 100 µM
- TGI [22]: > 100 µM
- TGI [23]: > 100 µM
- TGI [24]: > 100 µM
- TGI [25]: > 100 µM
- TGI [26]: > 100 µM
- TGI [27]: > 100 µM
- TGI [28]: > 100 µM
- TGI [29]: > 100 µM
- TGI [30]: > 100 µM
- TGI [31]: > 100 µM
- TGI [32]: 52.8 µM
- TGI [33]: > 100 µM
- TGI [34]: > 100 µM
- TGI [35]: > 100 µM
- TGI [36]: > 100 µM
- TGI [37]: > 100 µM
- TGI [38]: > 100 µM
- TGI [39]: 37.1 µM
- TGI [40]: > 100 µM
- TGI [41]: > 100 µM
- TGI [42]: > 100 µM
- TGI [43]: > 100 µM
- TGI [44]: > 100 µM
- TGI [59]: > 100 µM
- TGI [45]: > 100 µM
- TGI [46]: > 100 µM
- TGI [47]: > 100 µM
- TGI [48]: > 100 µM
- TGI [49]: > 100 µM
- TGI [50]: > 100 µM
- TGI [51]: > 100 µM
- TGI [53]: > 100 µM
- TGI [54]: > 100 µM
- TGI [55]: > 100 µM
- TGI [56]: > 100 µM
- TGI [57]: > 100 µM
